#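 Step 1: Grow cells in 96-well plates. Step 2: Expose to compound for 48 hours at 5 concentrations. Step 3: Interpolate endpoints linearly; if unreached, use highest concentration. GI50: concentration for 50% inhibition of growth. TGI is the concentration that stops growth completely.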
# Experiments:
# Test in all cases: inhibition of tumour cell growth, NCI panel, 48 h
# HCT-116 colon = tested on: HCT-116 colon
# SF-268 CNS = tested on: SF-268 CNS
# BT-549 breast = tested on: BT-549 breast
# DU-145 prostate = tested on: DU-145 prostate
# HCC-2998 colon = tested on: HCC-2998 colon
# ACHN renal = tested on: ACHN renal
# SF-539 CNS = tested on: SF-539 CNS
# SR leukemia = tested on: SR leukemia
# UACC-62 melanoma = tested on: UACC-62 melanoma
# HT29 colon = tested on: HT29 colon
# U251 CNS = tested on: U251 CNS
# SK-MEL-2 melanoma = tested on: SK-MEL-2 melanoma
# MDA-MB-231 breast = tested on: MDA-MB-231 breast
# SNB-75 CNS = tested on: SNB-75 CNS
# 786-0 renal = tested on: 786-0 renal
# SNB-19 CNS = tested on: SNB-19 CNS
# SK-OV-3 ovarian = tested on: SK-OV-3 ovarian
# NCI-H23 lung = tested on: NCI-H23 lung
# NCI-H522 lung = tested on: NCI-H522 lung
# OVCAR-8 ovarian = tested on: OVCAR-8 ovarian
# UO-31 renal = tested on: UO-31 renal
# MDA-MB-435 = tested on: MDA-MB-435
# LOX IMVI melanoma = tested on: LOX IMVI melanoma
# UACC-257 melanoma = tested on: UACC-257 melanoma
# PC-3 prostate = tested on: PC-3 prostate
# TK-10 renal = tested on: TK-10 renal
# HOP-62 NSCLC = tested on: HOP-62 NSCLC
# HS 578T breast = tested on: HS 578T breast
# NCI-H460 lung = tested on: NCI-H460 lung
# IGROV1 ovarian = tested on: IGROV1 ovarian
# HCT-15 colon = tested on: HCT-15 colon
# SN12C renal = tested on: SN12C renal
# OVCAR-3 ovarian = tested on: OVCAR-3 ovarian
# RXF 393 renal = tested on: RXF 393 renal
# HL-60(TB) leukemia = tested on: HL-60(TB) leukemia
# COLO 205 colon = tested on: COLO 205 colon
# SW-620 colon = tested on: SW-620 colon
# M14 melanoma = tested on: M14 melanoma
# KM12 colon = tested on: KM12 colon
# NCI/ADR-RES ovarian = tested on: NCI/ADR-RES ovarian
# MALME-3M melanoma = tested on: MALME-3M melanoma
# MCF7 breast = tested on: MCF7 breast
# K-562 leukemia = tested on: K-562 leukemia
# A498 renal = tested on: A498 renal
# SK-MEL-28 melanoma = tested on: SK-MEL-28 melanoma
# T-47D breast = tested on: T-47D breast
# OVCAR-5 ovarian = tested on: OVCAR-5 ovarian
# SF-295 CNS = tested on: SF-295 CNS
# OVCAR-4 ovarian = tested on: OVCAR-4 ovarian
# HOP-92 NSCLC = tested on: HOP-92 NSCLC
# CAKI-1 renal = tested on: CAKI-1 renal
smiles,measurement,setting,value
NCCCOc1cc2ccccc2cc1C(=O)NCCOc1nc2ccccc2cc1C(=O)Nc1ccc(Cl)cc1O,GI50,HCT-116 colon,252 nM
same,TGI,HCT-116 colon,2170 nM
same,GI50,SF-268 CNS,1120 nM
same,TGI,SF-268 CNS,2690 nM
same,GI50,BT-549 breast,1370 nM
same,TGI,BT-549 breast,3030 nM
same,GI50,DU-145 prostate,1340 nM
same,TGI,DU-145 prostate,2670 nM
same,GI50,HCC-2998 colon,1670 nM
same,TGI,HCC-2998 colon,3180 nM
same,GI50,ACHN renal,1070 nM
same,TGI,ACHN renal,2300 nM
same,GI50,SF-539 CNS,1120 nM
same,TGI,SF-539 CNS,2340 nM
same,GI50,SR leukemia,224 nM
same,TGI,SR leukemia,2110 nM
same,GI50,UACC-62 melanoma,270 nM
same,TGI,UACC-62 melanoma,2030 nM
same,GI50,HT29 colon,1500 nM
same,TGI,HT29 colon,3120 nM
same,GI50,U251 CNS,1050 nM
same,TGI,U251 CNS,2410 nM
same,GI50,SK-MEL-2 melanoma,1870 nM
same,TGI,SK-MEL-2 melanoma,3570 nM
same,GI50,MDA-MB-231 breast,1170 nM
same,TGI,MDA-MB-231 breast,2460 nM
same,GI50,SNB-75 CNS,1100 nM
same,TGI,SNB-75 CNS,2300 nM
same,GI50,786-0 renal,1170 nM
same,TGI,786-0 renal,2490 nM
same,GI50,SNB-19 CNS,1310 nM
same,TGI,SNB-19 CNS,2760 nM
same,GI50,SK-OV-3 ovarian,1340 nM
same,TGI,SK-OV-3 ovarian,2630 nM
same,GI50,NCI-H23 lung,941 nM
same,TGI,NCI-H23 lung,2410 nM
same,GI50,NCI-H522 lung,1340 nM
same,TGI,NCI-H522 lung,2840 nM
same,GI50,OVCAR-8 ovarian,1250 nM
same,TGI,OVCAR-8 ovarian,3100 nM
same,GI50,UO-31 renal,1190 nM
same,TGI,UO-31 renal,2820 nM
same,GI50,MDA-MB-435,1000 nM
same,TGI,MDA-MB-435,2370 nM
same,GI50,LOX IMVI melanoma,1070 nM
same,TGI,LOX IMVI melanoma,2390 nM
same,GI50,UACC-257 melanoma,678 nM
same,TGI,UACC-257 melanoma,2110 nM
same,GI50,PC-3 prostate,269 nM
same,TGI,PC-3 prostate,1990 nM
same,GI50,TK-10 renal,1300 nM
same,TGI,TK-10 renal,2760 nM
same,GI50,HOP-62 NSCLC,721 nM
same,TGI,HOP-62 NSCLC,2370 nM
same,GI50,HS 578T breast,1630 nM
same,TGI,HS 578T breast,3890 nM
same,GI50,NCI-H460 lung,482 nM
same,TGI,NCI-H460 lung,1870 nM
same,GI50,IGROV1 ovarian,1220 nM
same,TGI,IGROV1 ovarian,2800 nM
same,GI50,HCT-15 colon,818 nM
same,TGI,HCT-15 colon,2110 nM
same,GI50,SN12C renal,1330 nM
same,TGI,SN12C renal,2740 nM
same,GI50,OVCAR-3 ovarian,882 nM
same,TGI,OVCAR-3 ovarian,2250 nM
same,GI50,RXF 393 renal,1530 nM
same,TGI,RXF 393 renal,3020 nM
same,GI50,HL-60(TB) leukemia,621 nM
same,TGI,HL-60(TB) leukemia,2370 nM
same,GI50,COLO 205 colon,1100 nM
same,TGI,COLO 205 colon,2380 nM
same,GI50,SW-620 colon,82.9 nM
same,TGI,SW-620 colon,2060 nM
same,GI50,M14 melanoma,1310 nM
same,TGI,M14 melanoma,2750 nM
same,GI50,KM12 colon,1050 nM
same,TGI,KM12 colon,2400 nM
same,GI50,NCI/ADR-RES ovarian,1730 nM
same,TGI,NCI/ADR-RES ovarian,3350 nM
same,GI50,MALME-3M melanoma,1280 nM
same,TGI,MALME-3M melanoma,2790 nM
same,GI50,MCF7 breast,295 nM
same,TGI,MCF7 breast,1920 nM
same,GI50,K-562 leukemia,544 nM
same,TGI,K-562 leukemia,3300 nM
same,GI50,A498 renal,342 nM
same,TGI,A498 renal,3450 nM
same,GI50,SK-MEL-28 melanoma,1300 nM
same,TGI,SK-MEL-28 melanoma,2570 nM
same,GI50,T-47D breast,517 nM
same,TGI,T-47D breast,2390 nM
same,GI50,OVCAR-5 ovarian,1500 nM
same,TGI,OVCAR-5 ovarian,2830 nM
same,GI50,SF-295 CNS,1060 nM
same,TGI,SF-295 CNS,2470 nM
same,GI50,OVCAR-4 ovarian,75.5 nM
same,TGI,OVCAR-4 ovarian,1820 nM
same,GI50,HOP-92 NSCLC,126 nM
same,TGI,HOP-92 NSCLC,1320 nM
same,GI50,CAKI-1 renal,1330 nM
same,TGI,CAKI-1 renal,2930 nM
